Experimental data reported in patent US7683061B2, “Triazine dimers for the treatment of autoimmune diseases” (ProMetic BioSciences Inc., priority 2003, dated 2010).

Columns and labels:
RAW 264.7 cells = assay: Phagocytosis of FITC-immune complexes by RAW 264.7 cells; assay type: cell-based
Description: This assay was performed to determine the ability of protein A mimic compounds to stimulate or inhibit uptake of FITC-Immune Complex (IC). FITC-IC was prepared by mixing human serum albumin (HSA)-fluorescein isothiocyanate (FITC) with mouse IgG anti-HSA at a 1:4 ratio (four molecules of antibody for one molecule of antigen) on a rotary shaker for 1 h at room temperature. Soluble IC was then incubated with or without compounds or protein A for 10 min. This mixture was added to RAW 264.7 cells and incubated for 2 h at 37° C. for IC phagocytosis. After incubation, cells were washed twice in cold PBS (5 min, 1200 rpm) and fixed with 500 μL PBS containing 2% formaldehyde. FITC signal taken up by RAW 264.7, which is indicative of IC phagocytosis, was determined by flow cytometry analysis in a Becton Coulter counter with an argon laser and signal was measured through a 530/30 nm filter.

[1] = tested on: TNFα-induced apoptosis, WEHI-13VAR cells; assay: TNFα induced apoptosis in WEHI-13VAR cells (MTT); assay type: cell-based, murine; settings: Mus musculus
Description: Effect of compounds on TNFα-induced apoptosis was measured by a standard biological assay using WEHI-13VAR cells. These cells undergo apoptosis when they are incubated in the presence of TNFα and actinomycin D. 2×10^4 WEHI-13VAR cells were incubated in RPMI supplemented with 1% sodium pyruvate and 10% FBS, overnight at 37° C. for cell adherence. The cells were then cultured in the presence of 1 μg/mL of actinomycin D (to inhibit protein synthesis) and 0.04 nM TNFα with or without compounds at 37° C. After 16-24 h, 50 μL of a solution of 2 mg/mL of MTT was added to each well and the plate was then incubated for 4 h at 37° C. Only viable cells metabolize MTT to form formazan salt, which is detectable by the measurement of absorbance at 570 nm. After the incubation, the plate was inverted to remove medium and dead cells. 150 μL DMSO was added to each well to stop the reaction and solubilize the formazan salt. Optical density was read on a EL 800, universal Microplate reader (Bio-Tek). A decrease in the optical density is direct evidence of cell apoptosis induced by TNFα. Compounds were also compared to the activity of an anti-TNFα neutralizing antibody.

NZBxNZW mice = assay: SLE-glomerulonephritis in NZBxNZW mice; assay type: in vivo
Text: New Zealand mice of the F1 hybrid cross NZBxNZW develop most of the autoimmune abnormalities seen in human SLE and die from SLE-like immune complex (IC)-mediated glomerulonephritis. The mice develop high titers of anti-DNA (double-strand and single-strand) and nuclear extract (NE) antibodies, as well as SLE-related clinical manifestations including leukopenia, thrombocytopenia, proteinuria and glomerulonephritis. These mice develop anti-DNA antibodies after the age of 3 months, with a peak of anti-DNA antibody response occurring at 7 months. Subsequently, the serum concentration of anti-DNA antibodies declines, presumably as a consequence of progressive uremia. The first serological manifestations of the disease occurs at about 150 days (5 months). Their survival is evaluated at approximately 250 days.
FIG. 2 illustrates the effect of compound 1 on the mortality of the NZBxNZW mice. Intravenous administration of compound or vehicle was undertaken once a week from week 18 to week 37. Treatment ceased for 11 weeks and was restarted at week 48 for the control and compound 1 groups. […] It also delays the appearance of symptoms and mortality up to week 45. FIG. 3 illustrates the proteinuria at week 48 to 51.

MRL/lpr mice = assay: SLE-like syndrome in MRL/lpr mice; assay type: in vivo; settings: control group 10%
Text: FIG. 5 is an example of the effect of compounds on survival of MRL/lpr mice. These mice also spontaneously develop SLE-like syndrome. MRL/lpr have a homozygous fas mutation, which accelerates autoimmunity. […] Furthermore, compounds 1 and 20 increase the survival (40%) compared to the control group (10%).

[2] = weekly intravenous, week 48 to week 52

Oc1ccc(CCNc2nc(NCCNc3nc(NCCc4ccc(O)cc4)nc(Nc4ccccc4)n3)nc(Nc3ccccc3)n2)cc1 [Compound 1]
inhibition of phagocytosis of IC (RAW 264.7 cells; 10 and 20 μM): approximately 20%
phagocytosis of IC (RAW 264.7 cells; concentrations of 1, 2 and 4 μM): increase
inhibition at 10 µM ([1]; 1 × 10^−5M): 36.8%
inhibition at 20 µM ([1]; 2 × 10^−5M): 17.7%
inhibition at 40 µM ([1]; 4 × 10^−5M): -3.8%
inhibition at 5 µM ([1]; 5 × 10^−6M): 14.3%
delay of appearance of symptoms and mortality (NZBxNZW mice; intravenous once a week from week 18 to week 37): ≤ 45 week
mortality of NZBxNZW mice (NZBxNZW mice; intravenous once a week from week 18 to week 37, at week 37): reduces the mortality
extended survival (NZBxNZW mice; second SLE study, 65 weeks for control): up to 89 weeks
proteinuria: amount of protein greater than 5 g/liter (NZBxNZW mice; week 48 to 51, after 11 weeks without treatment): greater than the control
protein concentration (5 g/liter) in urine compared to the vehicle (NZBxNZW mice; [2]): decrease
trace amount of protein in urine (improvement in kidney filtration) (NZBxNZW mice; [2]): increase
survival of MRL/lpr mice (MRL/lpr mice): 40%
